Results: PubChem BioAssay AID1845215 (Molecular Pharmacology Branch, DTP, NCI, 2023)
pIC50: −log10 of the molar value. Where “and” joins values, the source holds several entries; their conditions need not be identical. Identical values can stand only once.

Test system: SW 1271 complex tumor spheroid viability
Test: Anticancer human tumor SW 1271 cell line growth inhibition;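 further: spheroids exposed to agents for seven days before readout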;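 on viability, T/C: percent of DMSO vehicle control luminescence so 100% = vehicle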
Conditions: for viability, T/C: stronger effect = lower value
Method in brief: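 Complex spheroids of malignant cells with endothelial cells and mesenchymal stem cells; agents alone or combined, from near clinical Cmax (or 10 microM if unknown) down in half-log steps, 0.25% DMSO final.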

[1] = curve of first compound, second compound 0.003 µM
[2] = second compound 0.003 µM, first compound 0.00949 µM
[3] = second compound 0.003 µM, first compound 0.03 µM
[4] = second compound 0.003 µM, first compound 0.0949 µM
[5] = second compound 0.003 µM, first compound 0.3 µM
[6] = second compound 0.003 µM, first compound 0.949 µM
[7] = second compound 0.003 µM, first compound 3 µM
[8] = curve of first compound, second compound 0.00949 µM
[9] = curve of first compound, second compound 0.03 µM
[10] = curve of first compound, second compound 0.0949 µM
[11] = curve of first compound, second compound 0.3 µM
[12] = second compound 0.00949 µM, first compound 0.00949 µM
[13] = second compound 0.00949 µM, first compound 0.03 µM
[14] = second compound 0.00949 µM, first compound 0.0949 µM
[15] = second compound 0.00949 µM, first compound 0.3 µM
[16] = second compound 0.00949 µM, first compound 0.949 µM
[17] = second compound 0.00949 µM, first compound 3 µM
[18] = second compound 0.03 µM, first compound 0.00949 µM
[19] = second compound 0.03 µM, first compound 0.03 µM
[20] = second compound 0.03 µM, first compound 0.0949 µM
[21] = second compound 0.03 µM, first compound 0.3 µM
[22] = second compound 0.03 µM, first compound 0.949 µM
[23] = second compound 0.03 µM, first compound 3 µM
[24] = second compound 0.0949 µM, first compound 0.00949 µM
[25] = second compound 0.0949 µM, first compound 0.03 µM
[26] = second compound 0.0949 µM, first compound 0.0949 µM
[27] = second compound 0.0949 µM, first compound 0.3 µM
[28] = second compound 0.0949 µM, first compound 0.949 µM
[29] = second compound 0.0949 µM, first compound 3 µM
[30] = second compound 0.3 µM, first compound 0.00949 µM
[31] = second compound 0.3 µM, first compound 0.03 µM
[32] = second compound 0.3 µM, first compound 0.0949 µM
[33] = second compound 0.3 µM, first compound 0.3 µM
[34] = second compound 0.3 µM, first compound 0.949 µM
[35] = second compound 0.3 µM, first compound 3 µM

## CNCc1ccc(-c2cc(-c3nc(-c4ccc(S(=O)(=O)C(C)C)cc4)cnc3N)on2)cc1 + COc1cc2c(cc1O)CCNC21CSC2c3c(OC(C)=O)c(C)c4c(c3C(COC1=O)N1C(O)C3Cc5cc(C)c(OC)c(O)c5C(C21)N3C)OCO4
Curve of first compound, second compound 30 pM
  pIC50: 6.93
Curve of first compound, second compound 94.9 pM
  pIC50: 7.58
Curve of first compound, second compound 0.0003 µM
  pIC50: > 8.02
Curve of first compound, second compound 0.000949 µM
  pIC50: > 8.02
[1]
  pIC50: > 8.02
Second compound 30 pM, first compound 0.00949 µM
  viability, T/C: 89.6%
Second compound 30 pM, first compound 0.03 µM
  viability, T/C: 89.7%
Second compound 30 pM, first compound 0.0949 µM
  viability, T/C: 55.5%
Second compound 30 pM, first compound 0.3 µM
  viability, T/C: 18.8%
Second compound 30 pM, first compound 0.949 µM
  viability, T/C: 11.3%
Second compound 30 pM, first compound 3 µM
  viability, T/C: 0.15%
Second compound 94.9 pM, first compound 0.00949 µM
  viability, T/C: 64%
Second compound 94.9 pM, first compound 0.03 µM
  viability, T/C: 42.6%
Second compound 94.9 pM, first compound 0.0949 µM
  viability, T/C: 37%
Second compound 94.9 pM, first compound 0.3 µM
  viability, T/C: 27.9%
Second compound 94.9 pM, first compound 0.949 µM
  viability, T/C: 14.7%
Second compound 94.9 pM, first compound 3 µM
  viability, T/C: 0.12%
Second compound 0.0003 µM, first compound 0.00949 µM
  viability, T/C: 28.8%
Second compound 0.0003 µM, first compound 0.03 µM
  viability, T/C: 35.5%
Second compound 0.0003 µM, first compound 0.0949 µM
  viability, T/C: 38.5%
Second compound 0.0003 µM, first compound 0.3 µM
  viability, T/C: 35%
Second compound 0.0003 µM, first compound 0.949 µM
  viability, T/C: 19.5%
Second compound 0.0003 µM, first compound 3 µM
  viability, T/C: 0.15%
Second compound 0.000949 µM, first compound 0.00949 µM
  viability, T/C: 5.31%
Second compound 0.000949 µM, first compound 0.03 µM
  viability, T/C: 7.14%
Second compound 0.000949 µM, first compound 0.0949 µM
  viability, T/C: 3.92%
Second compound 0.000949 µM, first compound 0.3 µM
  viability, T/C: 2.05%
Second compound 0.000949 µM, first compound 0.949 µM
  viability, T/C: 1.95%
Second compound 0.000949 µM, first compound 3 µM
  viability, T/C: 0.11%
[2]
  viability, T/C: 0.11%
[3]
  viability, T/C: 0.11%
[4]
  viability, T/C: 0.09%
[5]
  viability, T/C: 0.09%
[6]
  viability, T/C: 0.1%
[7]
  viability, T/C: 0.16%

## Cc1sc2c(c1C)C(c1ccc(Cl)cc1)=NC(CC(=O)Nc1ccc(O)cc1)c1nnc(C)n1-2 (configuration not stated) + CC[C@@]1(O)C(=O)OCc2c1cc1n(c2=O)Cc2cc3c(CN(C)C)c(O)ccc3nc2-1
[1]
  pIC50: 7.29
[8]
  pIC50: 7.97
[9]
  pIC50: > 8.02
[10]
  pIC50: > 8.02
[11]
  pIC50: > 8.02
[2]
  viability, T/C: 81.4%
[3]
  viability, T/C: 71.3%
[4]
  viability, T/C: 25.5%
[5]
  viability, T/C: 3.11%
[6]
  viability, T/C: 1.06%
[7]
  viability, T/C: 1.11%
[12]
  viability, T/C: 52.3%
[13]
  viability, T/C: 32.1%
[14]
  viability, T/C: 12.8%
[15]
  viability, T/C: 2.4%
[16]
  viability, T/C: 1.61%
[17]
  viability, T/C: 1.61%
[18]
  viability, T/C: 25.2%
[19]
  viability, T/C: 24.4%
[20]
  viability, T/C: 14.6%
[21]
  viability, T/C: 2.67%
[22]
  viability, T/C: 1.56%
[23]
  viability, T/C: 1.13%
[24]
  viability, T/C: 29%
[25]
  viability, T/C: 24.5%
[26]
  viability, T/C: 13.2%
[27]
  viability, T/C: 3.31%
[28]
  viability, T/C: 1.34%
[29]
  viability, T/C: 2.04%
[30]
  viability, T/C: 16.9%
[31]
  viability, T/C: 16.3%
[32]
  viability, T/C: 7.74%
[33]
  viability, T/C: 1.97%
[34]
  viability, T/C: 0.91%
[35]
  viability, T/C: 0.97%

## O=C(c1cc(Cc2n[nH]c(=O)c3ccccc23)ccc1F)N1CCN(C(=O)C2CC2)CC1
Compound 0.0949 µM
  viability, T/C: 91.1% and 93% and 93.6%
Compound 0.3 µM
  viability, T/C: 77.1% and 81.2% and 80.7%
Compound 0.949 µM
  viability, T/C: 77% and 74.6% and 75.7%
Compound 3 µM
  viability, T/C: 41% and 45.6% and 42.4%
Compound 9.49 µM
  viability, T/C: 29.3% and 28.4% and 28.2%
Compound 30 µM
  viability, T/C: 24.2% (2×) and 16.6%
Curve of compound
  pIC50: 5.64 and 5.59 and 5.61

## CNCc1ccc(-c2cc(-c3nc(-c4ccc(S(=O)(=O)C(C)C)cc4)cnc3N)on2)cc1 + CC[C@@]1(O)C(=O)OCc2c1cc1n(c2=O)Cc2cc3c(CN(C)C)c(O)ccc3nc2-1
[1]
  pIC50: 7.41
[8]
  pIC50: > 8.02
[9]
  pIC50: > 8.02
[10]
  pIC50: > 8.02
[11]
  pIC50: > 8.02
[2]
  viability, T/C: 84.7%
[3]
  viability, T/C: 60.7%
[4]
  viability, T/C: 21.3%
[5]
  viability, T/C: 27.2%
[6]
  viability, T/C: 5.87%
[7]
  viability, T/C: 0.11%
[12]
  viability, T/C: 38.9%
[13]
  viability, T/C: 29%
[14]
  viability, T/C: 19.9%
[15]
  viability, T/C: 11.5%
[16]
  viability, T/C: 9.07%
[17]
  viability, T/C: 0.1%
[18]
  viability, T/C: 22.5%
[19]
  viability, T/C: 23.3%
[20]
  viability, T/C: 20.2%
[21]
  viability, T/C: 34.2%
[22]
  viability, T/C: 12%
[23]
  viability, T/C: 0.09%
[24]
  viability, T/C: 23.2%
[25]
  viability, T/C: 25.8%
[26]
  viability, T/C: 21.6%
[27]
  viability, T/C: 20.5%
[28]
  viability, T/C: 10.8%
[29]
  viability, T/C: 0.09%
[30]
  viability, T/C: 18.1%
[31]
  viability, T/C: 17%
[32]
  viability, T/C: 20.4%
[33]
  viability, T/C: 10.8%
[34]
  viability, T/C: 1.75%
[35]
  viability, T/C: 7.62%

## O=C(c1cc(Cc2n[nH]c(=O)c3ccccc23)ccc1F)N1CCN(C(=O)C2CC2)CC1 + CC[C@@]1(O)C(=O)OCc2c1cc1n(c2=O)Cc2cc3c(CN(C)C)c(O)ccc3nc2-1
[1]
  pIC50: > 7.02
[8]
  pIC50: > 7.02
[9]
  pIC50: > 7.02
[10]
  pIC50: > 7.02
[11]
  pIC50: > 7.02
[4]
  viability, T/C: 34.5%
[5]
  viability, T/C: 42.2%
[6]
  viability, T/C: 40.8%
[7]
  viability, T/C: 27.9%
Second compound 0.003 µM, first compound 9.49 µM
  viability, T/C: 27.4%
Second compound 0.003 µM, first compound 30 µM
  viability, T/C: 25.8%
[14]
  viability, T/C: 27%
[15]
  viability, T/C: 27%
[16]
  viability, T/C: 28.1%
[17]
  viability, T/C: 25.3%
Second compound 0.00949 µM, first compound 9.49 µM
  viability, T/C: 29.2%
Second compound 0.00949 µM, first compound 30 µM
  viability, T/C: 28.3%
[20]
  viability, T/C: 25%
[21]
  viability, T/C: 25.5%
[22]
  viability, T/C: 29.5%
[23]
  viability, T/C: 37.1%
Second compound 0.03 µM, first compound 9.49 µM
  viability, T/C: 26.1%
Second compound 0.03 µM, first compound 30 µM
  viability, T/C: 29.7%
[26]
  viability, T/C: 34.8%
[27]
  viability, T/C: 26.4%
[28]
  viability, T/C: 28.4%
[29]
  viability, T/C: 27.1%
Second compound 0.0949 µM, first compound 9.49 µM
  viability, T/C: 28.7%
Second compound 0.0949 µM, first compound 30 µM
  viability, T/C: 28%
[32]
  viability, T/C: 16.1%
[33]
  viability, T/C: 13.4%
[34]
  viability, T/C: 12.1%
[35]
  viability, T/C: 10.5%
Second compound 0.3 µM, first compound 9.49 µM
  viability, T/C: 19%
Second compound 0.3 µM, first compound 30 µM
  viability, T/C: 8.08%
